In US11155523B2, “Biphenyl compound as CCR2/CCR5 receptor antagonist” (Medshine Discovery Inc., priority 2016, dated 2021):

How the values were obtained:
CCR2 = target: T1, CCR2 (Homo sapiens, UniProt P41597); assay: CCR2 in vitro test: intracellular calcium signal detected by FLIPR; type: cell-based; details: HEK293 cells expressing CCR2, agonist MCP-1 at EC80, calcium signal
T1 construct: expressed in transfected cells; host or cells: HEK293, clone C7, passage P6
How it was run: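 Receptor-expressing cells loaded with Fluo-4 Direct and probenecid (2.5 mM final), then preincubated with compounds (11-point 1:3 series) before challenge at EC80 of agonist (MCP-1 for CCR2, RANTES for CCR5). FLIPR calcium max−min signal; IC50 fitted.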

[1] = Comparative pharmacokinetics study in rats; type: in vivo, SD male rats; details: rat
Procedure: Experimental Example 2: Comparative Pharmacokinetics Study in Rats
SD male rats were used as the test animals in this study. The drug concentrations in plasma of the rats by intravenous or oral administration of test compounds WX017, WX047, WX079, WX088 and reference compound at different time points were quantitatively determined by LC/MS/MS, which were used to evaluate the pharmacokinetic profile of the two test drugs in rats.
A clear solution of the test compound was injected into SD rats via the tail vein (overnight fasting, 7-10 weeks old), and the test compound was orally administered to the SD rats (overnight fasting, 7-10 weeks old). Approximately 200 μL of blood was collected from the jugular vein or tail vein of the animals 0.0833, 0.25, 0.5, 1, 2, 4, 6, 8 and 24 hours after administration, and was placed in an anticoagulant tube containing EDTA-K2. The plasma was collected by centrifugation at 3000 g for 15 minutes at 4° C. The plasma concentration was determined by LC-MS/MS. The pharmacokinetic parameters were calculated by the non-compartment model linear logarithmic trapezoidal method using WinNonlin™ Version 6.3 (Pharsight, Mountain View, Calif.) pharmacokinetic software.

CYP3A4 = target: T2, CYP3A4 (Homo sapiens, UniProt P08684); assay: Inhibition of human liver microsomal CYP3A4 (midazolam probe); type: in vitro ADME; details: human liver microsomes, probe midazolam
T2 construct: from tissue; host or cells: human liver microsomes
Procedure: (§1) Experimental Example 4 Inhibition Effect on the Activity of Human Liver Microsomal Cytochrome P450 Isoezymes (CYP1A2, CYP2C9, CYP2C19, CYP2D6 and CYP3A4)
(§2) A total of 5 specific probe substrates for CYP's five isozymes, Phenacetin (CYP1A2), Diclofenac (CYP2C9), […] (S)-Mephenytoin, CYP2C19), Dextromethorphan (CYP2D6) and Midazolam (CYP3A4) were incubated with human liver microsomes and test compounds, respectively, and reduced nicotinamide adenine dinucleotide phosphate (NADPH) was added to initiate the reaction. After the reaction, the sample was processed and liquid chromatography tandem mass spectrometry (LC-MS/MS) was used to quantitatively detect the […] metabolites produced by the specific substrate, Acetaminophen and 4′-hydroxydiclofenac, 4′-hydroxymephenytoin, Dextrorphan and 1′-hydroxymidazolam, in order to calculate the corresponding half maximal inhibitory concentration (IC50).

[2] = test system: human liver microsomal cytochrome P450 isoenzymes; assay: Inhibition of human liver microsomal cytochrome P450 isoenzymes, overall conclusion; type: in vitro ADME; details: human liver microsomes
Procedure: as §1, §2

[3] = male, Sprague-Dawley (SD), plasma, intravenous injection 2 mg/kg

T2 sequence (P08684 whole entry): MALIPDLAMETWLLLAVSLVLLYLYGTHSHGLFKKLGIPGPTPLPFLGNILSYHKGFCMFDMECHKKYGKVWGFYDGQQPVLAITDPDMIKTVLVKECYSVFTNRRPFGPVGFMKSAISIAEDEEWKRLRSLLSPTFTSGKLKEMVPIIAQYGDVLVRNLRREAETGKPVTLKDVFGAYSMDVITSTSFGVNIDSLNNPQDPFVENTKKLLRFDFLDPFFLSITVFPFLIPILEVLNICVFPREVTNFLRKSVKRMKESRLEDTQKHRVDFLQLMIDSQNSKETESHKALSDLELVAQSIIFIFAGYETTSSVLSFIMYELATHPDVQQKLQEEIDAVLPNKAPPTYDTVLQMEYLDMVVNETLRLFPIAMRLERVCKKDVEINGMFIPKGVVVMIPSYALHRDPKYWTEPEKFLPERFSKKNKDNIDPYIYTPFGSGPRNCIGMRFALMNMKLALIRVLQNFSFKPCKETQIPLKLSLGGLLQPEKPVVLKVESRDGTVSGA
T1 sequence (P41597 whole entry, species assumed): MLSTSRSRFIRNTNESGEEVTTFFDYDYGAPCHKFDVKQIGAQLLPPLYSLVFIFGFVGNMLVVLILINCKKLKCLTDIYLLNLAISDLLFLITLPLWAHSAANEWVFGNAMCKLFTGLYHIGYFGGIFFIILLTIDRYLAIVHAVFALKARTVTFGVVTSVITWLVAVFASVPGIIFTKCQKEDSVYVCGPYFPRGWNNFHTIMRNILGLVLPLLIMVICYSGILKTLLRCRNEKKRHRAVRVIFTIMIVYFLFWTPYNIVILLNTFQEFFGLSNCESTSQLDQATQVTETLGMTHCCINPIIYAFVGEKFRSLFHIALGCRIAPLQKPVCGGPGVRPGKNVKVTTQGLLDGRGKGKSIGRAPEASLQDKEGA

- IC50 (CCR2): 8.2 nM
- clearance [1, 3]: 0.52 mL/min/kg
- half-life [1, 3]: 3.06 h
- bioavailability ([1]; male, Sprague-Dawley (SD), plasma, oral 10 mg/kg vs intravenous 2 mg/kg): 40.4%
- Area Under a Curve (0-inf) ([1]; intravenous injection 2 mg/kg): 101.904 µM·h
- Area Under a Curve (0-inf/0-last) ([1]; oral 10 mg/kg): 204.785 µM·h
- Peak time ([1]; oral 10 mg/kg): 5.0 h
- Oral plasma system exposure (AUC0-inf) as multiple of the reference compound ([1]; oral, relative to Cenicriviroc): 6.4 times
- Plasma clearance as percent of that of the reference compound ([1]; relative to Cenicriviroc): 33%
- IC50 (CYP3A4): > 50000 nM
- Risk of inhibiting isoenzymes of human liver microsomal cytochrome P450 (conclusion in words) [2]: no risk on inhibiting five isoenzymes
SMILES: CCCCOCCOc1ccc(-c2ccc(OCC)c(/C=C/C(=O)Nc3ccc([S@+]([O-])Cc4c(C)ncn4CC)cc3)c2)cc1 [WX047]
